Laboratory results published in the METLIN SMRT retention time set (Domingo-Almenara et al. 2019).
One block for each molecule: values may come before it.

Assay: gradient 5% acetonitrile 3 min, to 50% in 2 min, to 85% in 15 min, held 3 min, 100 µL/min
Conditions: column: Zorbax Extend-C18 2.1 x 50 mm; eluents: water / acetonitrile, 0.1% formic acid
How it was run: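 Standards, all pure, were combined into mixtures of ~100 molecules and run at 100 μL/min on a Zorbax Extend-C18 column (2.1 × 50 mm, 1.8 μm) with water and acetonitrile, each containing 0.1% formic acid. A coupled quadrupole time-of-flight mass spectrometer operated in positive and negative ionization mode. Retention time values come from computationally picked adduct peaks, each inspected manually.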

SMILES: CSc1ccccc1C(=O)NCc1cc(-c2cccs2)on1
RP-LC retention time: 796 s

SMILES: Cc1ccc(-c2nnc(Cc3nc(-c4ccc(Cl)cc4)no3)o2)cc1C
RP-LC retention time: 1220 s

SMILES: CCn1cc(-c2nc(-c3cccc(Br)c3)no2)c(=O)c2cc(F)c(N3CCOCC3)cc21
RP-LC retention time: 1050 s

SMILES: CCOc1ccc(NC(=O)Nc2nccn(-c3ccccc3OC)c2=O)cc1
RP-LC retention time: 935 s

SMILES: CCc1noc(-c2ccc(-n3ncc(C(=O)NC4CC4)c3C)nc2)n1
RP-LC retention time: 792 s

SMILES: C=C1C(=O)[C@]23[C@H](O)[C@H]1CC[C@H]2[C@@]12CO[C@]3(O)[C@@H](O)[C@@H]1C(C)(C)CC[C@@H]2O
RP-LC retention time: 794 s

SMILES: O=C(Nc1nnc(-c2ccncc2)o1)c1cc(=O)c2ccccc2o1
RP-LC retention time: 600 s

SMILES: COc1ccc(-c2nc(C3CC(=O)N(Cc4ccccc4)C3)no2)cc1 (stereo not given)
RP-LC retention time: 946 s

SMILES: CC1CCN(C(=O)c2cc(S(=O)(=O)N3CCC(C(=O)NC4CCCCC4)CC3)cn2C)CC1
RP-LC retention time: 839 s

SMILES: COc1ccccc1-c1nnc(SCC(=O)N2CCc3ccccc32)o1
RP-LC retention time: 839 s

SMILES: Cc1cn(C)c(CC(=O)NCCCN2CCOCC2)c1C(=O)O
RP-LC retention time: 571 s

SMILES: O=C(CCc1ccccc1)N1CCc2cc(-c3ccno3)ccc21
RP-LC retention time: 1020 s

SMILES: COc1ccccc1-c1nc(Cn2nnc(-c3nc(-c4ccccc4C)no3)c2C)c(C)o1
RP-LC retention time: 1180 s

SMILES: COc1ccc(C(=O)Nc2nccnc2C(=O)NCCN2CCCCC2)cc1
RP-LC retention time: 590 s

SMILES: CCCn1nc(CNC(=O)c2ccsc2)c2ccccc21
RP-LC retention time: 825 s

SMILES: O=C(c1ccco1)N1CCc2c([nH]c3ccccc23)C1c1ccc(Cl)cc1 (stereo not given)
RP-LC retention time: 1170 s

SMILES: O=C(Cn1cccc1-c1nnc(-c2ccccc2)o1)Nc1cccc(F)c1
RP-LC retention time: 960 s

SMILES: O=C1CCN(Cc2ccc3c(c2)CCO3)CCCCCCN1
RP-LC retention time: 586 s

SMILES: O=C(Cn1c(=O)sc2ccccc21)Nc1nc(-c2ccc(Br)cc2)cs1
RP-LC retention time: 1070 s

SMILES: CCN(CC)C(=O)c1ccc2c(c1)N(CC(=O)NCc1ccc3c(c1)OCO3)C(=O)C1CCCCN21 (stereo not given)
RP-LC retention time: 826 s

SMILES: COc1ccc(C(=O)Nc2c(-c3ccccc3)nc3ccccn23)c(OC)c1
RP-LC retention time: 664 s

SMILES: O=S(=O)(c1ccc(N2CCN(c3ccccn3)CC2)nn1)C1CCCCC1
RP-LC retention time: 608 s

SMILES: COCCc1noc(C2Cc3ccccc3N2C(=O)NCc2ccc(OC)cc2)n1 (stereo not given)
RP-LC retention time: 904 s

SMILES: O=C(NC1CCN(c2cc(-c3cccnc3)[nH]n2)CC1)c1ccc(F)c(Cl)c1
RP-LC retention time: 643 s

SMILES: COc1ccc(C2CC(=O)N(c3cccc(F)c3)C(=O)C2)cc1
RP-LC retention time: 896 s

SMILES: Cc1nc(CSc2ncnc3sc4c(c23)CCC4)cs1
RP-LC retention time: 1040 s

SMILES: Cc1cccc(NC(=O)Cn2ncn3c(C)c(C(=O)NCC(C)C)c(C)c3c2=O)c1
RP-LC retention time: 594 s

SMILES: Cc1cc(=O)n(CC(=O)N2CCN(c3ccc(F)cc3)CC2)c(N2CCc3ccccc3C2)n1
RP-LC retention time: 799 s

SMILES: COCc1noc([C@@H]2CN(C(=O)C3CC=CC3)C[C@H]2C(N)=O)n1
RP-LC retention time: 609 s

SMILES: CC(C)CNC(=O)c1cc2c(s1)N(CC1CC1)CCCC2
RP-LC retention time: 1040 s

SMILES: COc1ccc(OC)c(NC(=O)N(C)CCc2noc(COc3ccccc3)n2)c1
RP-LC retention time: 936 s

SMILES: CNC(=O)c1cc(C)nc2c(C)cccc12
RP-LC retention time: 570 s

SMILES: CCn1c(CCC(=O)NCc2ccccc2OC)nc2ccc(C)cc2c1=O
RP-LC retention time: 817 s

SMILES: CCOC(=O)c1cccc(Nc2c(-c3ccc(OC)cc3)nc3cnccn23)c1
RP-LC retention time: 668 s

Other lines, results leading:

RP-LC retention time: 630 s
SMILES: O=C1CCCc2c1cc(C(=O)NCc1ccccn1)c(=O)n2-c1ccc(F)cc1

RP-LC retention time: 846 s
SMILES: O=C(Cn1cc(S(=O)(=O)N2CCCCC2)ccc1=O)N1CCCc2ccccc21

RP-LC retention time: 1340 s
SMILES: CCCOc1nc2ccccc2nc1N1CCCC(C(=O)Nc2cc(C)ccc2C)C1 (stereo not given)

RP-LC retention time: 758 s
SMILES: Cc1ccc(NC(=O)C2CCCN2S(=O)(=O)c2cc3c(cc2C)NC(=O)CO3)cc1 (stereo not given)

RP-LC retention time: 622 s
SMILES: CCOC(=O)c1cccc(Nc2ncccc2S(=O)(=O)NC)c1

RP-LC retention time: 960 s
SMILES: CCCn1c(=O)sc2cc(S(=O)(=O)N3CCC(C(=O)NCc4ccc(C)o4)CC3)ccc21

RP-LC retention time: 884 s
SMILES: CCC(=O)Oc1ccc(NC(=O)c2ccc(S(=O)(=O)N3CCCC3)cc2)cc1

RP-LC retention time: 557 s
SMILES: Cc1cnc(-c2ccncc2)n1C1CCCN(S(=O)(=O)c2cn(C)cn2)C1 (stereo not given)

RP-LC retention time: 1030 s
SMILES: Cc1ccc(OCc2nc(C3CN(C(=O)C4(c5ccccc5)CC4)C3)no2)cc1

RP-LC retention time: 679 s
SMILES: CN(C)c1nc2cc(C(=O)N3CCCCC3)sc2n1-c1ccccc1

RP-LC retention time: 591 s
SMILES: COCCNS(=O)(=O)c1cc(-c2[nH]ncc2C(=O)N2CCCC2)oc1C

RP-LC retention time: 780 s
SMILES: COc1ccc(-c2cc3c(=O)n(CC(=O)Nc4ccc(C)c(F)c4)ccn3n2)cc1OC

RP-LC retention time: 823 s
SMILES: CC1(C)C(=O)N(CC(=O)Nc2ccc3c(c2)OCCO3)c2ccccc21

RP-LC retention time: 816 s
SMILES: CC(C)c1ccc(NC(=O)Cn2cnc3c2c(=O)n(C)c(=O)n3C)cc1

RP-LC retention time: 831 s
SMILES: CC(NC(=O)C1C(=O)NC2(C)CC1c1ccccc1O2)c1ccccc1 (stereo not given)

RP-LC retention time: 1390 s
SMILES: CCCOc1nc2ccccc2nc1N1CCCC(C(=O)Nc2cccc(C)c2C)C1 (stereo not given)

RP-LC retention time: 781 s
SMILES: CCCNC(=O)C1CCN(c2cc(SCC(=O)Nc3ccc(C(=O)OCC)cc3)ncn2)CC1

RP-LC retention time: 767 s
SMILES: O=C(NCc1cc(F)cc(F)c1)C1CC(=O)N(c2ccc3c(c2)CCN3C(=O)C2CC2)C1 (stereo not given)

RP-LC retention time: 625 s
SMILES: Cc1ccc(-c2nc3ccccc3[nH]2)cc1NC(=O)c1ccco1

RP-LC retention time: 940 s
SMILES: Cn1c(=O)c(=O)n(C)c2cc(N3CCCCC3)c(NC(=O)C3CCCCC3)cc21

RP-LC retention time: 795 s
SMILES: COc1cc(OC)cc(C(=O)N2CCC3(CC2)NC(=O)c2cc(C)ccc2N3C)c1

RP-LC retention time: 608 s
SMILES: CS(=O)(=O)c1ccc(NC(=O)CSc2ccc(N3CCCC(C(=O)NC4CC4)C3)nn2)cc1 (stereo not given)

RP-LC retention time: 1300 s
SMILES: CCCN1C(=O)COc2ccc(-c3noc(-c4cccc(N(C)C)c4)n3)cc21

RP-LC retention time: 605 s
SMILES: CCCN1CCN(c2cc(C(=O)O)c3cc(NS(=O)(=O)c4ccccc4C)ccc3n2)CC1

RP-LC retention time: 657 s
SMILES: COc1ccc(CNC(=O)C2CCCN(c3nnc4ccc(Cl)cn34)C2)cc1 (stereo not given)

RP-LC retention time: 632 s
SMILES: Cc1ccc(Nc2cc(N3CCC(C(=O)N4CCCC4)CC3)ncn2)cc1

RP-LC retention time: 768 s
SMILES: Cc1ccc(CNC(=O)N2CCC(N3CCN(Cc4ccccc4)C(=O)C3=O)CC2)cc1

RP-LC retention time: 817 s
SMILES: Cc1ccc(NC(=O)N2C[C@@H](F)C[C@H]2C(=O)N2CCc3ccccc3C2)cc1C

RP-LC retention time: 627 s
SMILES: Cc1ccc(-n2c(N3CCCC(C(=O)NCc4ccncc4)C3)nc3ccsc3c2=O)cc1 (stereo not given)

RP-LC retention time: 788 s
SMILES: COc1ccc(CNC(=O)C2CCN(S(=O)(=O)c3ccc4c(c3)NC(=O)C(C)O4)CC2)cc1 (stereo not given)

RP-LC retention time: 739 s
SMILES: Cc1ccccc1CNC(=O)c1ccc2c(c1)n(C)c(=O)c1ccnn12
